Assay results: patent publication US7527935B2, “G-protein coupled receptor having eicosanoid as ligand and gene thereof” (Mitsubishi Tanabe Pharma Corporation, priority 2002, dated 2009)

Experiments:
[1] = target: T1, fusion protein of TG1019 protein and Gqα (Homo sapiens, UniProt Q8TDS5, D111G/K206E/T295A); experiment: [35S]GTPγS binding to membrane fraction containing TG1019-Gqα fusion protein; format: biochemical; conditions: membrane fraction with TG1019-Gqα fusion protein; increase small compared to Giα
T1 construct: made in house; host or cells: Sf9 insect cells (baculovirus, pVL1392), membrane fraction
From the text: As stated in Example 1, it is concluded that TG1019 protein is a G-protein coupled receptor. Therefore, using a membrane fraction containing fused protein of TG1019 and G-protein, a ligand is identified as follows, according to a method for detecting a ligand-dependent binding with GTPγS (guanosine 5′-O-(3-thiotriphosphate)) [Wenzel-Seifert, et al., Mol. Pharmacom., Vol. 58, pp. 954-966, 2000; Bahia, et al., Biochemistry, Vol. 37, pp. 11555-11562, 1998].
Sf9 cells were inoculated onto a 10 cm Petri dish coated with collagen to about 70% confluence, and added thereto were Virus solution III (100 μl) obtained above and 12 ml of a culture medium, and the mixture was cultured at 27° C. for 4 days. […]
The membrane fraction (450 μl) obtained above (2) was suspended in a reaction buffer (7.54 ml), and added thereto was GDP (10 mM, 10 μl). […] GTPγS (a binding amount to the membrane fraction) on the filter was measured by liquid scintillation counting. From the thus measured [^35S] GTPγS binding amount was subtracted a nonspecific binding amount (a binding amount measured in the presence of 10 μM GTPγS), to obtain a specific binding amount of [^35S ] […]

[2] = system: TG1019 protein; experiment: Forskolin-stimulated cAMP production in CHO cells transiently expressing TG1019; format: cell-based, human
From the text: A TG1019 protein expression vector was transiently introduced to CHO cells to have a recombinant TG1019 protein expressed, and using these cells, a function of TG1019 protein as an eicosanoid receptor was confirmed.
At first, a DNA encoding an entire region of TG1019 protein obtained in Example 1 (1) mentioned above was subcloned in NotI recognition site of a vector plasmid pcDNA3.1 (an expression vector, available from Invitrogen), to obtain TG1019 protein expression vector plasmid pcDNA3.1-TG1019.
CHO cells (1×10^6 cells) were cultured in DMEM/F-12 culture medium supplemented with 10% fetal bovine serum at 37° C. for 20 hours. Using these cells, transfection was carried out by adding plasmid DNA (pcDNA3.1-TG1019, or as a control, vector pcDNA3.1) (5 μg) and transfection reagent (LipofectAMINE, available from Invitrogen), and the mixture was cultured for 24 hours. In case of using pretreatment with pertussis toxin, pertussis toxin (100 ng) was added after 20 hours of culture and the mixture was successively cultured for 4 hours.
The cells after culture were collected, washed, and suspended in a KRH buffer (Krebs-Ringer Hepes buffer, pH 7.4) containing rolipram (25 mM). The suspension was incubated at 37° C. for 30 minutes and inoculated in a 96 well plate (5-7.5×10^4 cells/90 μl/well).
Subsequently, KRH buffer (90 μl/well) containing forskolin (1 μM) and 5-oxo-ETE (the final concentration 0M or 10^−11 to 10^−5 M) was added thereto, and after the mixture was incubated at room temperature for 10 minutes, the cells were lysed to measure a cAMP production amount.
The cAMP production amount was measured using cAMP enzyme immunoassay system available from Amersham Biosciences.

[3] = system: eosinophils; experiment: Migration test of eosinophils; format: cell-based; conditions: purified human eosinophils; 1.5 hours
Experimental: Blood was collected (50 ml) from healthy male adult volunteers, and from the collected peripheral blood, eosinophils were purified as follows.
After washing the eosinophils and neutrophils purified in the above sections, the cells were suspended in RPMI1640 supplemented with 0.1% BSA (not containing phenol red) which contains 3 μM Calcein-AM (Dojindo laboratories, fluorescence reagent), so that the cell count became 1×10^6 cells/ml. The suspension was incubated at 37° C. for 30 minutes. The cells were washed twice with the same culture medium, and suspended in the same medium so that the cell count became 1×10^6 cells/ml.
Using these cells, cell migration test was carried out using 2 chambers for migration test (Transwell; 3 μm pore, 24 well, 3422 [Costar]). […]
After the reaction, the chambers were removed, and to the lower chamber was added 66 μl of 10× lysis buffer (5% Triton X-100 dissolved in PBS, 10% ethanol). […] 200 μl of the cell lysate was transferred to 96 well black plate (237105, Nunc), and fluorescence intensities were measured using a fluorometer (ARVO™ SX, Wallac) with an excitation wavelength of 485 nm and a fluorescence wavelength of 535 nm.

T1 sequence (Q8TDS5 with tags, fused parts or gaps D111G/K206E/T295A): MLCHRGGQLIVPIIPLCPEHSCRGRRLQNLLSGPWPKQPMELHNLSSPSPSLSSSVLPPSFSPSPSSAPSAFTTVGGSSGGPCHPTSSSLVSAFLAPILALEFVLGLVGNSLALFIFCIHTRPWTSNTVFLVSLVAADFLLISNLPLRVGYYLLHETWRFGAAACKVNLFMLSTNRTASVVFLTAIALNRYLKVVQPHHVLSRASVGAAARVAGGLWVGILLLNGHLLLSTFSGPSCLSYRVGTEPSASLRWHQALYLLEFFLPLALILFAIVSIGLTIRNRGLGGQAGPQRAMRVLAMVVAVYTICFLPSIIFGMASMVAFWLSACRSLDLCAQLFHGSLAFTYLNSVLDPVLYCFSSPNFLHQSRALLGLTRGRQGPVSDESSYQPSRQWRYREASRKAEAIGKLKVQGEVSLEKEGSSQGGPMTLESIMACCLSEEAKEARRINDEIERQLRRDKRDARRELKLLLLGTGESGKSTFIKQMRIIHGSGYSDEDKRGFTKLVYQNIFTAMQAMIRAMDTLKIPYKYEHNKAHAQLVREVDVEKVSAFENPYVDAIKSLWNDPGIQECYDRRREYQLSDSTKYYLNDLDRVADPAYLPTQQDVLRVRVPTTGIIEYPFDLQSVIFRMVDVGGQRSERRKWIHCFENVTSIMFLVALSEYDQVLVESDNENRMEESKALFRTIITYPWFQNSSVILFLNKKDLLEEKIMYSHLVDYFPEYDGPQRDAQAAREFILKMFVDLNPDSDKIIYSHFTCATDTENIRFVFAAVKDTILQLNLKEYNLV

## CCCCC/C=C\C/C=C\C/C=C\C=C\C(=O)CCCC(=O)O [5-oxo-ETE, 5-oxo-6E,8Z,11Z,14Z-eicosatetraenoic acid]
[1]
  specific binding amount of [35S]GTPγS: increased
[2]; CHO cells with pcDNA3.1-TG1019 introduced, forskolin 1 μM, concentration-dependent
  cAMP production amount upon forskolin stimulation: inhibited
[2]; TG1019-expressing CHO cells pretreated with pertussis toxin
  cAMP production: not inhibited
[2]; control CHO cells with only vector introduced
  cAMP production amount upon forskolin stimulation: not changed
[3]
  migration of eosinophils: has an ability to make these cells migrate
